Data reported in US8367678B2, “Treatment for spinal muscular atrophy” (Kaohsiung Medical University, priority 2008, dated 2013).
pIC50: −log10 of the molar value.

Columns and labels:
Assay type in all cases: cell-based, Human
[1] = tested on: SMN2 exon 7 splicing in SMA lymphoid cell lines; experiment: SMN2 exon 7-containing versus exon 7-lacking transcripts by RT-PCR and quantitative densitometry
Procedure: Human SMA lymphoid cell lines were treated with several 5-(N-ethyl-N-isopropyl)-amiloride and then the relative levels of SMN2 exon 7-containing versus exon 7-lacking transcripts by RT-PCR and quantitative densitometry (Proc Natl Acad Sci USA 2001; 98:9808-9813) were measured. Human lymphoblast cell lines were established from SMA patients with homozygous SMN1 deletion in our laboratory by Epstein-Barr virus transformation as described in Proc Natl Acad Sci USA 2001; 98:9808-9813. The cells were grown in RPMI-1640 medium supplemented with 2 mM L-glutamine, 10% fetal bovine serum (FBS), 100 units/ml penicillin and 100 μg/ml streptomycin at 37° C. in a humidified atmosphere containing 5% CO2. The SMA lymphoid cell lines derived from 6 SMA patients included 2 type I, 2 type II and 2 type III. The cells were treated with various concentrations of EIPA for 24 hours to determine the dosage effect and exposed to 10 μM of EIPA and harvested at different time intervals (2-24 hours). […] Thus, EIPA promoted SMN2 exon 7 inclusion in a dose-dependent and time-related manner in SMA cells.

[2] = tested on: SMN protein in SMA lymphoid cell lines; experiment: SMN protein level by Western blotting and quantitative densitometry; details: 24 hours
Procedure: SMA lymphoid cell lines were treated with various concentrations of EIPA for 24 hours and then the level of SMN protein by Western blotting and quantitative densitometry were measured. Protein extract preparation and western blot analysis were performed essentially as described previously (Proc Natl Acad Sci USA 2001; 98:9808-9813). Briefly, proteins were resolved by SDS-PAGE and transferred to a polyvinyl difluoride membrane (Millipore). The membrane was blocked with a 5% skim milk solution and then exposed to the appropriate concentrations of primary antibodies for 1 hour at room temperature. The following primary antibodies were used: mouse monoclonal anti-SMN (BD Biosciences, 1:5,000), mouse monoclonal anti-SR 16H3 (Zymed, 1:500), mouse monoclonal anti-SRp20 (Zymed, 1:500), mouse monoclonal anti-hnRNP A 1 (Acris, 1:1000), mouse monoclonal anti-hnRNP A2/B1 (Acris, 1:1000), mouse monoclonal anti-Sam68 (Santa Cruz, 1:500), mouse monoclonal anti-SF2/ASF (Zymed, 1:2000), mouse monoclonal anti-Akt (Cell Signaling, 1:1000), mouse monoclonal anti-phosphorylated Akt (Cell Signaling, 1:1000), mouse monoclonal anti-α-tubulin (Abeam, 1:5000), and mouse monoclonal anti-β-tubulin (Santa Cruz, 1:2000). After washing with TBST (0.05% Tween 20 in TBS), the membrane was incubated for 1 hour with a secondary antibody at a 1:2500 dilution and then detected by ECL chemiluminescence kit (Amersham). Intensity of the signals was measured using LabWorks software (UVP). Referring to FIG. 2, in the cytoplasm, the SMN protein level of EIPA-treated SMA cell was 1.8-, 1.4-, and 2.6-fold higher than untreated cell lines. In the nucleus, the SMN protein level at 2, 10 and 50 μM EIPA was 2.2-, 2.0-, and 3.3-fold higher than untreated cell lines.

[3] = tested on: SRp20 in SMA lymphoid cell lines; experiment: Levels of SR and hnRNP proteins by Western blotting and quantitative densitometry; details: 10 μM EIPA (FIG. 3)
Procedure: SMA lymphoid cell lines were treated with various concentrations of EIPA for 24 hours and then the level of SMN protein by Western blotting and quantitative densitometry were measured. Protein extract preparation and western blot analysis were performed essentially as described previously (Proc Natl Acad Sci USA 2001; 98:9808-9813). Briefly, proteins were resolved by SDS-PAGE and transferred to a polyvinyl difluoride membrane (Millipore). The membrane was blocked with a 5% skim milk solution and then exposed to the appropriate concentrations of primary antibodies for 1 hour at room temperature. […] After washing with TBST (0.05% Tween 20 in TBS), the membrane was incubated for 1 hour with a secondary antibody at a 1:2500 dilution and then detected by ECL chemiluminescence kit (Amersham). Intensity of the signals was measured using LabWorks software (UVP). […]
SMA lymphoid cell lines were treated with EIPA and then the change in the levels of several SR and hnRNP proteins by Western blotting and quantitative densitometry was examined. The protein levels in cytoplasmic and nuclear fractions were also measured separately in order to gain information about subcellular distribution. […]

[4] = tested on: SMA lymphoid cells; experiment: Intracellular pH by cytofluorometric SNARF-1 measurement; details: 4 hours, untreated control about 7.40
Procedure: Thus, the intracellular pH lowering and cytotoxic effects of EIPA on SMA lymphoid cells were determined. The procedures of cytofluorometric measurement were modified from a published method (J Cell Physiol 1998; 177:109-122). Briefly, three million SMA lymphoid cells were treated with 0, 2, or 10 μM of EIPA in 3 ml of growth medium for 4 hours in a 37° C. CO2 incubator, washed in PBS and then incubated in PBS containing 5 μM of carboxy SNARF-1 AM, acetate (Molecular Probes) for 30 minutes at 37° C., also in the absence or presence of 2 or 10 μM EIPA. The SNARF-1 loaded cells collected by 200×g 10 minutes centrifugation were divided into 7 aliquots, 5 for the calibration standard curves and 2 for sample reading. […] The aliquots for sample reading were suspended in hepes-buffered pH 7.1 and pH 7.4 K^+-BSS, without or with EIPA addition, but in the absence of nigericin. After standing in the darkness at room temperature for 20 minutes, the SNARF-1 fluorescence measurement was performed in a cytofluorometer (FACSAria BD Biosciences) by excitation at 488 nm and fluorescent emissions at 580 (FL-2) and 640 nm (FL-3). The cytofluorometric data was analyzed by using FACSDiVa and CellQuest software to gate the major viable cell populations for producing a standard curve of the 640/580 nm fluorescence ratios (y-axis) versus the high-K BSS buffer pHs (x-axis) of nigericin-treated cells. […]

[5] = tested on: SMA lymphoid cells; experiment: Cell viability by trypan blue dye exclusion; details: 24 hours
Procedure: (§1) 2.5×10^5 lymphoid cells/0.5-ml/well in a 12-well dish were exposed to 0, 2, 5, 10, 20 or 50 μM of EIPA. Viability was determined by trypan blue dye exclusion at 24 hours. To determine the cell growth effect of EIPA, 2.5×10^5 lymphoid cells/0.5-ml/well in a 12-well dish were exposed to 0, 2, 5, 10, 20 or 50 μM of EIPA. 0.5-ml of fresh medium (without or with the same EIPA addition) was added at 72 hours and cell counts made at 120 hours. Referring to FIG. 6A, the cell viability remained at above 90% after treatment of 20 μM (or lower) EIPA for 24 hours, but was down to 60% in 50 WA EIPA medium. Additionally, Referring to FIG. 6B, from a dose response curve of 120 hours in vitro cultures, it was estimated that 8 μM of EIPA cause 50% growth inhibition of SMA lymphoid cells.

[6] = tested on: SMA lymphoid cells; experiment: Cell growth assay (cell counts at 120 hours); details: 120 hours in vitro cultures, from dose response curve; read-out: concentration causing 50% growth inhibition of SMA lymphoid cells
Procedure: as §1

CCN(c1nc(N)c(C(=O)N=C(N)N)nc1Cl)C(C)C [EIPA, 5-(N-ethyl-N-isopropyl)-amiloride]
ratio of SMN2 exon 7-containing to exon 7-lacking transcripts ([1]; 2 μM EIPA, 24 hours, SMA lymphoid cell lines): increased significantly
ratio of SMN2 exon 7-containing to exon 7-lacking transcripts ([1]; 10 μM EIPA, 24 hours, SMA lymphoid cell lines): increased significantly
ratio of SMN2 exon 7-containing to exon 7-lacking transcripts ([1]; 10 μM EIPA, at 4 hours after the treatment): significantly increased
ratio of SMN2 exon 7-containing to exon 7-lacking transcripts ([1]; 50 μM EIPA, 24 hours, SMA lymphoid cell lines): increased significantly
SMN protein level in the cytoplasm versus untreated cell lines ([2]; first listed concentration (2 μM EIPA)): 1.8 fold
SMN protein level in the cytoplasm versus untreated cell lines ([2]; second listed concentration (10 μM EIPA)): 1.4 fold
SMN protein level in the cytoplasm versus untreated cell lines ([2]; third listed concentration (50 μM EIPA)): 2.6 fold
SMN protein level in the nucleus versus untreated cell lines ([2]; 2 μM EIPA): 2.2 fold
SMN protein level in the nucleus versus untreated cell lines ([2]; 10 μM EIPA): 2.0 fold
SMN protein level in the nucleus versus untreated cell lines ([2]; 50 μM EIPA): 3.3 fold
increase of the level of SRp20 in the nucleus [3]: approximately 4 fold
intracellular pH (pHi) ([4]; 2 μM EIPA): 7.15±0.10
intracellular pH (pHi) ([4]; 10 μM EIPA): 7.03±0.15
cell viability ([5]; 20 μM (or lower) EIPA): above 90%
cell viability ([5]; 50 μM EIPA medium): 60%
pIC50 [6]: ~5.10
